Source: paper PMC4193777 (PLoS ONE, 2014)

Biological target: T1, FPR2 (Homo sapiens, UniProt P25090)
T1 construct: Human peripheral blood neutrophils were isolated from buffy coats from healthy blood donors; endogenous in cells; host or cells: primary human peripheral blood neutrophils from buffy coats of healthy donors
T1 sequence (P25090 1-351): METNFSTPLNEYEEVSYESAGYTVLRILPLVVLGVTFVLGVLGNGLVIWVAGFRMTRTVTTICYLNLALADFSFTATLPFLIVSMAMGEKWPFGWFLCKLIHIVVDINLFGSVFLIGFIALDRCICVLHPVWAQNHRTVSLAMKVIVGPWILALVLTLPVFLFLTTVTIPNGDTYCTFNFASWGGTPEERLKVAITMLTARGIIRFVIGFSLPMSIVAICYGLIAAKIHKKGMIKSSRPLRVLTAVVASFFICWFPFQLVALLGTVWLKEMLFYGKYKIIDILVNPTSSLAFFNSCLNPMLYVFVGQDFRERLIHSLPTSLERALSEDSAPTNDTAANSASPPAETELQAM
Experiment: Homologous desensitization of neutrophils (superoxide)
Type: cell-based
Settings: first F2Pal10 (500 nM) then WKYMVM (40 nM), or reversed order, five minutes apart
Experimental: Human peripheral blood neutrophils were isolated from buffy coats from healthy blood donors using dextran sedimentation and Ficoll-Paque gradient centrifugation as described. The remaining erythrocytes were disrupted by hypotonic lysis, the neutrophils were washed twice, resuspended in KRG, and stored on melting ice until use. This isolation procedure permits cells to be purified with minimal granule mobilization.
The NADPH-oxidase activity was determined using isoluminol-enhanced chemiluminescence (CL), [27]. The CL activity was measured in a six-channel Biolumat LB 9505 (Berthold Co., Wildbad, Germany), using disposable 4-ml polypropylene tubes with a 900 µl reaction mixture containing 10^5 cells, isoluminol (2×10^−5 M) and HRP (2 U). The tubes were equilibrated in the Biolumat for 5 min at 37°C, after which the stimulus (100 µl) was added and the light emission was recorded continuously. […]
Figure 1 The F2Pal10 pepducin specifically activates FPR2. A. Primary human neutrophils were activated by F2Pal10 (500 nM) in the absence (solid line) or presence of the receptor specific inhibitor PBP10 (FPR2 specific inhibitor; 1 µM final concentration, dashed line) or the FPR1 antagonist cyclosporin H (CysH; 1 µM final concentration, dotted line) and the release of superoxide anions was recorded continuously. […] The release of superoxide anions was recorded continuously. […]

Compound: CSCC[C@H](NC(=O)[C@@H](NC(=O)[C@H](CCSC)NC(=O)[C@H](Cc1ccc(O)cc1)NC(=O)[C@H](CCCCN)NC(=O)[C@@H](N)Cc1c[nH]c2ccccc12)C(C)C)C(N)=O [WKYMVM]
- desensitization to second FPR2 agonist: vice versa
